Converted amounts (≈) assume the structure as drawn.
How the values were obtained:
MDCK cells = test: Growth inhibition (cytotoxicity) of MDCK cells in the PR-8 antiviral assay, neutral red; type: cell-based, canine (Canis familiaris); details: Canis lupus familiaris, 50% growth inhibition
[1] = system: influenza virus type A strain PR8; test: Antiviral assay: cytopathic effect (CPE) reduction, influenza virus type A strain PR8 in MDCK cells, neutral red dye uptake; type: cell-based, Influenza A strain A/PR/8/34 (HINI)
[2] = system: P388 murine leukemia cells; test: Antiproliferative effect against murine P388 leukemia cells, MTT; type: cell-based; details: Mus musculus, 48 hour exposure
Procedure: The crude ethanolic extract and pure compound was tested for toxicity against murine P388 leukemia cells. P388 cells obtained from J. Mayo, National Cancer Institute, Bethesda, Md., were maintained in Roswell Park Memorial Institute medium 1640 (RPMI-1640) supplemented with 10% horse serum. All cell lines were cultured in plastic tissue culture flasks and kept in an incubator at 37° C. in humidified air containing 5% CO2. Antibiotic-free stock cultures of P388 cells were subcultured to 10^5 cells/ml by dilution in fresh growth medium at 2-3 day intervals. The mean generation time of primary cultures was 14-17 hours.
To assess the antiproliferative effects of agents against P388 cells, 200 μl cultures (96-well tissue culture plates, Nunc, Denmark) were established at 1×10^6 cells/ml in drug-free medium or medium containing the crude extract at a final dilution of 1:500 of compound 1 or 2 at various concentrations. Solvent for all dilutions was methanol, which was removed from plates under vacuum. All experimental cultures were initiated in medium containing Gentamicin sulfate ([…]; Schering Corporation, Kenilworth, N.J.). After 48 hour exposures, P388 cells were enumerated using 3-[4,5-dimethylthiazol-2-yl]-2,5-diphenyltetrazolium bromide (MTT) as described below (Alley, M. C. et al. [1988] Cancer Res. 48:589).
To quantitate the effects on cell proliferation, 75 μl of warm growth medium containing 5 mg/ml MTT was added to each well and cultures were returned to the incubator for 90 minutes. To spectrophotometrically quantitate formation of reduced formazan, plates were centrifuged (900 xg, 5 minutes), culture fluids removed by aspiration, and 200 μl of acidified isopropanol (2 ml concentrated HCl/liter isopropanol) added per well. The absorbance of the resulting solutions were measured at 570 nm with a plate reader (MR700 Microplate Reader, Dynatech Laboratories, Chantilly, Va.). […] A linear relationship between P388 cell number and formazan production was found over the range of cell densities observed in these experiments.

[3] = molar restatement of μg per 200 μl value

SMILES | IC50 (MDCK cells; [3]) [µM] | IC50 (MDCK cells; 72 h, read on day 3) [µg/mL] | in vitro therapeutic index (TI) ([1]; dog, mdck) | IC50 [2] [µg/mL] | activity against influenza virus type A strain PR-8 (in words) [1] | in vitro therapeutic index (TI) ([1]; ratio of IC50/EC50)
COc1ccc(O)c2c1CC1(C)C(C)CCC3C(C)(C)CCCC31O2 (stereo not shown) [Compound 1] | 19 | 6.5 | 9 | 13 (≈ 37.7 µM) | – | –
COc1ccc(OC(C)=O)c2c1CC1(C)C(C)CCC3C(C)(C)CCCC31O2 (stereo not shown) [Compound 2] | 15 | 5 | 100 | 23.8 (≈ 61.6 µM) | – | –
C[C@H]1CC[C@H]2C(C)(C)CCC[C@]23Oc2ccc(O)cc2C[C@]13C [aureol, reference compound] | 11.6 | 3.65 | – | 9 (≈ 28.6 µM) | strong antiviral activity | 116

Reference: patent US5051519A, “Novel antiviral and antitumor terpene hydroquinones and methods of use” (Harbor Branch Oceanographic Institution, Inc., priority 1990, dated 1991)
